Several values for one entry are separate records, joined by “and”; a condition that tells them apart may be missing. Equal entries are not always repeated. Entries after “also recorded” stand apart in the source; their conditions may differ.
Assays:
[1] = system: rats trained to discriminate morphine from vehicle; assay: Drug discrimination (DD), morphine-trained rats; settings: for Response rate impairment %: highest dose tested (5.6 mg/Kg), percent of vehicle responding
Experimental: Drug Discrimination (DD): Rats were food deprived to approximately 85% of the weight of free feeding cohorts to establish operant responding for 45 mg food pellets (Bioserve, Frenchtown, N.J.) in standard operant chambers (MED Associates, St. Albans, Vt.). Rats were fed 10-20 g of standard food after daily DD sessions, and ˜3× the daily amount on weekends to maintain appropriate weight. DD consisted of 3 phases (Krivsky et al., 2006). In phase 1, rats were trained to lever press for food at a fixed ratio (FR) level 1 (i.e., 1 lever press=1 food pellet) using 2 levers with stimulus lights located above each lever and a food hopper between the levers during 120 min sessions. Responding on either lever extinguished the light and delivered a food pellet. […] Once >20 pellets were earned at FR9, sessions were shortened to 20 min and response requirements were set at FR10 and the left or right lever reinforced responding on alternate days. Once >20 pellets were earned on each lever at FR10, rats started phase 2 of DD training.
Only responses on the correct lever were reinforced and responses on the incorrect lever reset the response requirement on the correct lever. Criteria to move to phase 3 were as follows: >20 pellets per session, >90% injection appropriate lever responding, and <9 responses on the incorrect lever before the first food pellet reward.
Two paradigms were utilized to generate substitution curves: cumulative within-session and bolus between-session injections.
During substitution tests, both levers actively delivered food at an FR10 schedule. […] Doses were increased in ¼ log increments, with injections every 20 min followed 15 minutes later by DD sessions lasting 5 min each. […] The advantage of this procedure was that an entire dose-response was generated in one session.
Statistics: PRISM software (GraphPad, San Diego, Calif.) was used for one-way analysis of variance (ANOVA) with Newman-Keuls post-hoc comparisons to compare CPP groups, locomotor effects, hot plate, and DD response rates. Locomotor data recorded during the conditioning sessions were analyzed by 2-way ANOVA (session x drug) and data from the first session were subtracted from the final session to assess locomotor enhancement. Experimenters were blinded to treatment groups.

glia = settings: conditions where morphine activates glia; cited from earlier work

NC(=O)CNC(=O)[C@@H]1CCC(=O)NCCCC[C@@H](NC(=O)[C@@H](N)Cc2ccc(O)cc2)C(=O)N[C@@H](Cc2c[nH]c3ccccc23)C(=O)N[C@@H](Cc2ccccc2)C(=O)N1 [ZH853, Tyr-c[D-Lys-Trp-Phe-Glu]-Gly-NH2]
Response rate impairment % ([1]; bolus injections): 15% and 15.1%
Response rate impairment % ([1]; cumulative injections): 0.8%
response rates for food during test sessions ([1]; i.v., compared to vehicle): not impaired; also recorded: lowest among all compounds tested
glial activation (glia): lack of glial activation

Reference: patent US20220056075A1, “METHOD FOR TREATING OPIOID USE DISORDER” (THE ADMINISTRATORS OF THE TULANE EDUCATIONAL FUND, priority 2019, published 2022)
